The target of one test is T1, human androgen receptor (Homo sapiens, UniProt P10275).
T1 sequence (P10275 1-920): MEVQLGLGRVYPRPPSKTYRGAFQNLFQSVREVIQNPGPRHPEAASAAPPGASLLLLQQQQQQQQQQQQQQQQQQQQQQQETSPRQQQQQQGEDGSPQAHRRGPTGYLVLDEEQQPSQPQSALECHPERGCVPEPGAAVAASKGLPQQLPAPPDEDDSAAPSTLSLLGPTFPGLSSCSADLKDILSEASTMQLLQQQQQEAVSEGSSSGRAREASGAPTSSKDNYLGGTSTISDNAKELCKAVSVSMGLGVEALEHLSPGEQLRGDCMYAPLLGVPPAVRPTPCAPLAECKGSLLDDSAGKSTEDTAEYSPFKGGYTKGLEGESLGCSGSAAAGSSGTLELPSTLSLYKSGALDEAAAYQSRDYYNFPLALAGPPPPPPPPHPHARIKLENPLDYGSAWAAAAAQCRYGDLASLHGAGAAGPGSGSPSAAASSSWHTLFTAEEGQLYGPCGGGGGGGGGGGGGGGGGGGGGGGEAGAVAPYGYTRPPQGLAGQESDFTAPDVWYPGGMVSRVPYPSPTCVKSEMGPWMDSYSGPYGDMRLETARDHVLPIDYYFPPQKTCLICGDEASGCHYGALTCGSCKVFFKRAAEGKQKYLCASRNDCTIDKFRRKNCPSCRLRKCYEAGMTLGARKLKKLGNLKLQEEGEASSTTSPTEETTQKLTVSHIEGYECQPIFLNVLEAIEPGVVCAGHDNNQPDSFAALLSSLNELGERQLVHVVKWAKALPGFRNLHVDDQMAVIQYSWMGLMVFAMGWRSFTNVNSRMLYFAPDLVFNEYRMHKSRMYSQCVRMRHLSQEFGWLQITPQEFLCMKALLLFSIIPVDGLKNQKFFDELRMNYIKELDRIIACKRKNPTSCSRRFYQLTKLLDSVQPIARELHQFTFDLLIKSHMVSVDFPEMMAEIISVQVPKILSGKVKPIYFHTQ
As to the kind of experiment: Human androgen receptor activity assay (anti-androgen activity, hAR). In kind it is binding.

For the next test, the target named is T2, type 2 5α-reductase (Homo sapiens, UniProt P31213).
T2 construct: Preparation of Human Prostatic and Scalp 5α-reductases; from tissue; host or cells: human prostate (crude nuclear pellet of the homogenate)
T2 sequence (P31213 1-254): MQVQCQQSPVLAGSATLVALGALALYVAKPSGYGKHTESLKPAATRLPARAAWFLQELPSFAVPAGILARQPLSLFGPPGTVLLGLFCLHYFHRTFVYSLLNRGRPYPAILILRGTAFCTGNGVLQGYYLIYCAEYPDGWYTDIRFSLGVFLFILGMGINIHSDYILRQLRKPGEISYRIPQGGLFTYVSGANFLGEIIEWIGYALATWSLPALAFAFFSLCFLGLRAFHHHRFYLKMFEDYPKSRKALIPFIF
Briefly: 5α-reductase assay, type 2 (human prostatic homogenate), inhibition studies. In kind it is biochemical. On the procedure:
(§1) Samples of human tissue were pulverized using a freezer mill and homogenized in 40 mM potassium phosphate, pH 6.5, 5 mM magnesium sulfate, 25 mM potassium chloride, 1 mM phenylmethyl-sulfonyl fluoride, 1 mM dithiothreitol (DTT) containing 0.25 M sucrose using a Potter-Elvehjem homogenizer. A crude nuclear pellet was prepared by centrifugation of the homogenate at 1,500× G for 15 min. The crude nuclear pellet was washed two times and resuspended in two volumes of buffer. Glycerol was added to the resuspended pellet to a final concentration of 20%. The enzyme suspension was frozen in aliquots at −80° C.
(§2) The reaction mixture for the type 1 5α-reductase contained 40 mM potassium phosphate, pH 6.5, […] [7-^3H]-testosterone, 1 mM dithiothreitol and 500 μM NADPH in a final volume of 100 μL. The reaction mixture for the type 2 5α-reductase contained 40 mM sodium citrate, pH 5.5 0.3 mM [7-^3H]-testosterone, 1 mM dithiothreitol and 500 μM NADPH in a final volume of 100 μL. Typically, the assay was initiated by the addition of 50-100 μg prostatic homogenate or 75-200 μg scalp homogenate and incubated at 37° C. After 10-50 min. the reaction was quenched by extraction with 250 μL of a mixture of 70% cyclohexane: 30% ethyl acetate containing 10 μg each DHT and T. The aqueous and organic layers were separated by centrifugation at 14,000 rpm in an Eppendorf microfuge. The organic layer was subjected to normal phase HPLC (10 cm Whatman partisil 5 silica column established in 1 ml/min 70% cyclohexane: 30% ethyl acetate; retention times: DHT, 6.8-7.2 min.; androstanediol, 7.6-8.0 min.; T, 9.1-9.7 min.). […] The conversion of T to DHT was monitored using the radioactivity flow detector by mixing the HPLC effluent with one volume of Flo Scint 1 (Radiomatic).
(§3) Compounds were dissolved in 100% ethanol. The compound to be tested was pre-incubated with the enzyme (either 5α-reductase type 1 or 2) prior to initiation by addition of substrate testosterone. […] Representative compounds of this invention were tested in the above described assay for 5α-reductase type 1 and type 2 inhibition.

The target of the next test is T3, type 1 5α-reductase (Homo sapiens, UniProt P18405).
T3 construct: Preparation of Human Prostatic and Scalp 5α-reductases; from tissue; host or cells: human scalp (crude nuclear pellet of the homogenate)
T3 sequence (P18405 1-259): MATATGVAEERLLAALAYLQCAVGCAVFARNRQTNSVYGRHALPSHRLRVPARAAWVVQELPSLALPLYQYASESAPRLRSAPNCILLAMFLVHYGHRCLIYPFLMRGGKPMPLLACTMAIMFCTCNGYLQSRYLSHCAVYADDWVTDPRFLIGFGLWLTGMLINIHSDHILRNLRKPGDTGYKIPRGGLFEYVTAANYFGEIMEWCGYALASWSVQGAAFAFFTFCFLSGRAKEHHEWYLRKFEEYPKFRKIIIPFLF
Briefly: 5α-reductase assay, type 1 (human scalp homogenate), inhibition studies. In kind it is biochemical. On the procedure:
as §1, §2, §3

Setting [1] is: human, anti-androgen activity, read-out: IC50 hAR.
The mark [2] stands for this setting: human, conversion of testosterone to DHT, pH 5.5, read-out: IC50 Type 2 5aR.
Where [3] appears, read: human, conversion of testosterone to DHT, pH 6.5, read-out: IC50 Type 1 5aR.

In USRE39056E1, “4-Azasteroids for treatment of hyperandrogenic conditions” (Merck & Co, Inc., priority 1995, dated 2006) one finds IC50 data, which are given here for 9 compounds.

Where two headings read alike, the source gives them in different places.

In general, IC50 refers to the point on the concentration scale where inhibition reaches its midpoint. As to `CN1C(=O)C=C[C@]2(C)[C@H]3CC[C@]4(C)[C@@H](C(=O)Nc5ccc(Cl)cc5)CC[C@H]4[C@@H]3CC[C@@H]12` [Example 1, N-(4-chlorophenyl)-3-oxo-4-methyl-4-aza-5α-androst-1-ene-17β-carboxamide], the half-maximal inhibitory concentration (IC50) came to 0.01 µM on human androgen receptor (setting [1]), 0.1 µM at type 2 5α-reductase and 0.04 µM against type 1 5α-reductase.

For the compound `CN1C(=O)C=C[C@]2(C)[C@H]3CC[C@]4(C)[C@@H](C(=O)Nc5ccccc5F)CC[C@H]4[C@@H]3CC[C@@H]12` [Example 3, N-(2-fluorophenyl)-3-oxo-4-aza-4-methyl-5α-androst-1-ene-17β-carboxamide], the half-maximal inhibitory concentration (IC50) against human androgen receptor worked out at 0.009 µM; on type 2 5α-reductase, 0.06 µM; on type 1 5α-reductase, 0.02 µM.

In the case of `COc1ccccc1NC(=O)[C@H]1CC[C@H]2[C@@H]3CC[C@H]4N(C)C(=O)C=C[C@]4(C)[C@H]3CC[C@]12C` [Example 2, N-(2-methoxyphenyl)-3-oxo-4-aza-4-methyl-5α-androst-1-ene-17β-carboxamide], the figures for the concentration for half-maximal inhibition (IC50) on human androgen receptor, on type 2 5α-reductase and on type 1 5α-reductase were 0.04 µM, 0.1 µM and 0.02 µM, respectively.

In the case of `CN1C(=O)C=C[C@]2(C)[C@H]3CC[C@]4(C)[C@@H](C(=O)Nc5ccccc5Cl)CC[C@H]4[C@@H]3CC[C@@H]12` [Example 6, N-(2-chlorophenyl)-3-oxo-4-aza-4-methyl-5α-androst-1-ene-17β-carboxamide], the IC50 against human androgen receptor amounted to 0.008 µM; at type 2 5α-reductase, 0.01 µM; against type 1 5α-reductase, 0.006 µM.

For the compound `CN(C(=O)[C@H]1CC[C@H]2[C@@H]3CC[C@H]4N(C)C(=O)C=C[C@]4(C)[C@H]3CC[C@]12C)C(c1ccccc1)c1ccccc1` [Example 11, N-(diphenylmethyl)-N-(methyl)-4-methyl-3-oxo4-aza-5α-androst-1-ene-17-β-carboxamide], the half-inhibitory concentration (IC50) at human androgen receptor (setting [1]) was determined as 0.85 µM; at type 2 5α-reductase (setting [2]), 0.0003 µM; at type 1 5α-reductase (setting [3]), 0.003 µM.

Consider `CN1C(=O)C=C[C@]2(C)[C@H]3CC[C@]4(C)[C@@H](C(=O)Nc5ccccc5C(F)(F)F)CC[C@H]4[C@@H]3CC[C@@H]12` [Example 4, N-(2-trifluoromethyl-phenyl)-3-oxo-4-aza-4-methyl-5α-androst-1-ene-17β-carboxamide], for which the IC50 on human androgen receptor was 0.03 µM; at type 2 5α-reductase it was 0.007 µM; at type 1 5α-reductase, 0.002 µM.

Regarding `Cc1ccccc1NC(=O)[C@H]1CC[C@H]2[C@@H]3CC[C@H]4N(C)C(=O)C=C[C@]4(C)[C@H]3CC[C@]12C` [Example 5, N-(2-methylphenyl)-3-oxo-4-aza-4-methyl-5α-androst-1-ene-17β-carboxamide], the IC50 amounted to 0.03 µM on human androgen receptor, 0.02 µM against type 2 5α-reductase and 0.02 µM at type 1 5α-reductase.

Consider `CN1C(=O)C=C[C@]2(C)[C@H]3CC[C@]4(C)[C@@H](C(=O)NC(c5ccccc5)c5ccccc5)CC[C@H]4[C@@H]3CC[C@@H]12` [Example 10, N-(diphenylmethyl)-4-methyl-3-oxo-4-aza-5α-androst-1-ene-17-β-carboxamide], for which the IC50 at human androgen receptor (setting [1]) came to 0.04 µM; at type 2 5α-reductase (setting [2]), 0.002 µM; on type 1 5α-reductase (setting [3]) it was 0.02 µM.

With `CN1C(=O)C=C[C@]2(C)[C@H]3CC[C@]4(C)[C@@H](C(=O)Nc5cc(C(F)(F)F)ccc5C(F)(F)F)CC[C@H]4[C@@H]3CC[C@@H]12` [Example 7, N-(2,5-bistrifluoromethyl-phenyl)-3-oxo-4-aza-4-methyl-5α-androst-1-ene-17β-carboxamide], the IC50 is 0.02 µM against human androgen receptor, 0.02 µM at type 2 5α-reductase and 0.004 µM on type 1 5α-reductase.
